Laboratory results: ChEMBL document CHEMBL6115048, “Uncovering α-Selectivity for Liver X Receptor Agonists for Lipotoxic Cancer Therapies” (J Med Chem, 2025)
Active and inactive are the calls of the source. No cut-off for these calls is given here.

What was measured:
[1] = target: T1, Vitamin D3 receptor (Homo sapiens) (UniProt P11473); experiment: Agonist activity at VDR (unknown origin) transfected in human HepG2 cells co-transfected with renilla reniformis luciferase reporter at 10 uM incubated for 24 hrs by dual-luciferase reporter gene assay; type: cell-based
T1 sequence (whole entry): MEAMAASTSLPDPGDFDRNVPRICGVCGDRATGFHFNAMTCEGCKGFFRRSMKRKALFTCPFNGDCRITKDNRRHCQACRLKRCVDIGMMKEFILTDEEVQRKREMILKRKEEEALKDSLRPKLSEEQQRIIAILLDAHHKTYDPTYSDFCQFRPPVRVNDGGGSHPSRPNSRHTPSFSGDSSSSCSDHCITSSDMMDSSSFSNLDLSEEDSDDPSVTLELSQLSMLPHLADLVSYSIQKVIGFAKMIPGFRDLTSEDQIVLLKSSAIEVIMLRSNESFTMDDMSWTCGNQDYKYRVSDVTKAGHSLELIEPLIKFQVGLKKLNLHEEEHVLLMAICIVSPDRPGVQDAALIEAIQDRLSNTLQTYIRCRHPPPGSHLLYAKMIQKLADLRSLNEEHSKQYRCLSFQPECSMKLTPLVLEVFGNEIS

[2] = target: T2, Aryl hydrocarbon receptor (Homo sapiens, UniProt P35869); experiment: Agonist activity at AhR (unknown origin) transfected in human HepG2 cells co-transfected with renilla reniformis luciferase reporter at 10 uM incubated for 24 hrs by dual-luciferase reporter gene assay; type: cell-based; details: hepg2, 24 h
T2 sequence (P35869 whole entry): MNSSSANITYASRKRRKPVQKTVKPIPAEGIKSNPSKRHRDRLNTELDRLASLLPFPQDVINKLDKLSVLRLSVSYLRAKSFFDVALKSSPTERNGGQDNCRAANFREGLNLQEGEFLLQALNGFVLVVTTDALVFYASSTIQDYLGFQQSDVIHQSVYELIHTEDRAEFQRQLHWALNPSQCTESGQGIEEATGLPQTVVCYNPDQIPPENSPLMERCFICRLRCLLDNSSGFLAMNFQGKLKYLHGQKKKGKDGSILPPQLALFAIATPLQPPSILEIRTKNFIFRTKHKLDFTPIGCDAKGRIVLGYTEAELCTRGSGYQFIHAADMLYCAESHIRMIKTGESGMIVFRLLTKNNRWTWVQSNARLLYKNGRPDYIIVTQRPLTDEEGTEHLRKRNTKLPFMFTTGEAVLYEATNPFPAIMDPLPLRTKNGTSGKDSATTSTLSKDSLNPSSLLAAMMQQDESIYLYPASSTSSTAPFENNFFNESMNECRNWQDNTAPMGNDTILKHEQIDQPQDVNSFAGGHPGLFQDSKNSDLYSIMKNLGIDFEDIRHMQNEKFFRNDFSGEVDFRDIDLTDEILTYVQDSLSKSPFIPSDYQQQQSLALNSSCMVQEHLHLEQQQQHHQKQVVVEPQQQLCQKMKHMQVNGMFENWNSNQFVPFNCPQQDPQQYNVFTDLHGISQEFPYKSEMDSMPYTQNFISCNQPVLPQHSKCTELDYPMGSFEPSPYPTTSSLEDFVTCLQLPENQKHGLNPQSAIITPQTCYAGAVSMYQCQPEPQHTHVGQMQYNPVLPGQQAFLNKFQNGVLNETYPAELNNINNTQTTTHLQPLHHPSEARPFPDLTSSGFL

[3] = target: T3, Peroxisome proliferator-activated receptor gamma (Homo sapiens) (UniProt P37231); experiment: Agonist activity at PPARgamma (unknown origin) transfected in human HepG2 cells co-transfected with renilla reniformis luciferase reporter at 10 uM incubated for 24 hrs by dual-luciferase reporter gene assay; type: cell-based
T3 sequence (whole entry): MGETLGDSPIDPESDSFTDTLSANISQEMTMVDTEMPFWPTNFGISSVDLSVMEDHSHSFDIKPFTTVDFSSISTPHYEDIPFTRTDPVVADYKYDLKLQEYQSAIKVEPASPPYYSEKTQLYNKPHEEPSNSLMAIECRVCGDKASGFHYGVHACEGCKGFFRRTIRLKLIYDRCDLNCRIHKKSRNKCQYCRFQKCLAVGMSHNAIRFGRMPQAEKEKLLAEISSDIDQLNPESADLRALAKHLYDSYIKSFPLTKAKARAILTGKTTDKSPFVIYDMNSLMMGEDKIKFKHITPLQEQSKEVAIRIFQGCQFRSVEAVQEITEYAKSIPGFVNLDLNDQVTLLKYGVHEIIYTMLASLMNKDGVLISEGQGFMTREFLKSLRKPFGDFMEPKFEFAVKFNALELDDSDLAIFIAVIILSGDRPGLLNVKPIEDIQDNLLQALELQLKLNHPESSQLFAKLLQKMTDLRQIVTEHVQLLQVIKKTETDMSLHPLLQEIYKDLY

[4] = system: Hepatocellular carcinoma organoid; experiment: Antiproliferative activity against C57BL/6 mouse Hepatocellular carcinoma organoids harboring myristoylated Akt1 and overexpressing Myc assessed as reduction in cell viability at 1 to 5 uM measured after 5 days in presence of sorafenib by Celltiter-glo assay; type: functional, tissue-based; details: Neoplasm, dose 1-5 µM, time 5.0 day
Hep 3B2 [5] = experiment: Antiproliferative activity against human Hep3B cells assessed as reduction in cell viability at 0.01 to 100 uM measured after 5 days in presence of sorafenib and sodium oleate by CellTiter-Glo assay; type: functional, cell-based; details: dose 0.01-100 µM, time 5.0 day
Hep 3B2 [6] = experiment: Induction of endoplasmic reticulum (ER) stress in human Hep3B cells assessed as increase in GADD34 expression measured after 3 days in presence of sorafenib by Western blot analysis; type: functional, cell-based; details: time 3.0 day
BNL CL.2 = experiment: Cytotoxicity against mouse BNL CL.2 cells assessed as reduction in cell viability at 0.01 to 100 uM measured after 5 days in presence of sorafenib by CellTiter-Glo assay; type: toxicity, cell-based; details: bnl cl.2, 120 h, dose 0.01-100 µM, time 5 day
[7] = target: T4, Bile acid receptor (Homo sapiens) (UniProt Q96RI1); experiment: Agonist activity at FXR (unknown origin) transfected in human HepG2 cells co-transfected with renilla reniformis luciferase reporter at 10 uM incubated for 24 hrs by dual-luciferase reporter gene assay; type: cell-based
T4 sequence (whole entry): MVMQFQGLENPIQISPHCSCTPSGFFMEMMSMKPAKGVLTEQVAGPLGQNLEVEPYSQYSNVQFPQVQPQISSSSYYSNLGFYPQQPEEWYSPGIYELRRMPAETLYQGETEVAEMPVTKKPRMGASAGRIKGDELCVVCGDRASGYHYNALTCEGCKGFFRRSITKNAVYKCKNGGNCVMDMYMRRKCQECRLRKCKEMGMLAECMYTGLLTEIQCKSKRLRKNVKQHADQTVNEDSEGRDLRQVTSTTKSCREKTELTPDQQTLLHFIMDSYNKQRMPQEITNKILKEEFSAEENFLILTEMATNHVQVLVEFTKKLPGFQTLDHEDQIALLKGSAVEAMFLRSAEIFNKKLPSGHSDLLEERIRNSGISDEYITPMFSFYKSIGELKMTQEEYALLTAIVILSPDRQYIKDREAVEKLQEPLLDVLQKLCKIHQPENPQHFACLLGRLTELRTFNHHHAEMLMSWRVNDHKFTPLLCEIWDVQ

`O=C1C(Nc2ccc(N3CCCCC3)cc2)=C(c2ccccc2)C(=O)N1Cc1ccccc1` was tested, and the Activity [1] was “inactive”, the Activity [2] was “Not_active” and the Activity [3] was “inactive”. For the same compound, the Activity [4] was “Active”, the Activity (Hep 3B2 [5]) was “inactive” and the Activity (Hep 3B2 [6]) was “Active”. For the same compound, the Activity (BNL CL.2) was “Toxic” and the Activity [7] was “inactive”.
